Measured values taken from US20050203065A1, “Method of treating ischemia reperfusion injury using adenosine receptor antagonists” (priority 2002, published 2005).
pKi: −log10 of the molar value.

What was measured:
[1] = system: open-chest, barbital-anesthetized dogs; assay: Protocol II (preconditioning): four 5-minute occlusion/reperfusion cycles before 60-minute occlusion and 3 hours reperfusion in dogs; assay type: in vivo, dog
Procedure: Preconditioning was elicited by four 5-minute occlusion/5-minute reperfusion cycles produced 10 minutes before the 60-minute occlusion.

[2] = biological target: T1, recombinant canine A2a adenosine receptors (Canis lupus familiaris, UniProt P11617); assay: Radioligand competition binding, canine A2a receptor (3H-ZM 241385), transfected HEK 293 membranes; conditions: canine; mean ± SEM, n = 3; 3H-ZM 241385; read-out: Ki, A2a
T1 construct: expressed in transfected cells
T1 sequence (P11617 whole entry): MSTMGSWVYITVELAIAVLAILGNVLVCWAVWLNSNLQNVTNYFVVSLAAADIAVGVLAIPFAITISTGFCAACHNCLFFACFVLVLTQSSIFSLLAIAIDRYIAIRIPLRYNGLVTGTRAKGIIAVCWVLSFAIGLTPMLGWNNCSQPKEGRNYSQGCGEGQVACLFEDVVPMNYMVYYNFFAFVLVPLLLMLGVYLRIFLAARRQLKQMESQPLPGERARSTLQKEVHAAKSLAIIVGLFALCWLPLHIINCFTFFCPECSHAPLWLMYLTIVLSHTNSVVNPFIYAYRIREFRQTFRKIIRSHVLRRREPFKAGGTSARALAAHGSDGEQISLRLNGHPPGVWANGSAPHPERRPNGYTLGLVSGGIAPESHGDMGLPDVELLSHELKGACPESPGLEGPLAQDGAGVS
Procedure: Membranes (40-70 μg membrane protein), radioligands, and varying concentrations of competing ligands were incubated in triplicate in 0.1 ml buffer HE plus 2 units/mL adenosine deaminase for 2.5 hours at 21° C. […] Nonspecific binding was measured in the presence of 10 μM 5′N ethylcarboxamidoadenosine (NECA, from RBI-Sigma, Natick, Mass.) for A1 and A2b receptors, or 10 μM xanthine amino congener (XAC, from RBI-Sigma, Natick, Mass.) for A2a receptors. Binding assays were terminated by filtration over Whatman GF/C glass fiber filters using a BRANDEL cell harvester (Gaithersburg, Md.).

[3] = biological target: T2, recombinant canine A3 adenosine receptors (Canis lupus familiaris, UniProt Q28309); assay: Radioligand competition binding, canine A3 receptor (R-PIA), transfected HEK 293 membranes; conditions: mean ± SEM, n = 3
T2 construct: expressed in transfected cells
T2 sequence (Q28309 1-314): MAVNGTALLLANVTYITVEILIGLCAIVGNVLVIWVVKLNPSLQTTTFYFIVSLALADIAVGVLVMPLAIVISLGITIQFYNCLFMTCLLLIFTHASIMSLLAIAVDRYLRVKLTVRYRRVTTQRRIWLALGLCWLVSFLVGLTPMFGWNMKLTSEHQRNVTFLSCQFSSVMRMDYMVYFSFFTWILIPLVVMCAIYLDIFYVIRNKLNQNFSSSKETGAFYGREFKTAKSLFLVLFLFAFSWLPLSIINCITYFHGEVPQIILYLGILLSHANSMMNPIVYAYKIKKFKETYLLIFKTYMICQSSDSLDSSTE
Procedure: (§1) Membranes (40-70 μg membrane protein), radioligands, and varying concentrations of competing ligands were incubated in triplicate in 0.1 ml buffer HE plus 2 units/mL adenosine deaminase for 2.5 hours at 21° C. The radioligands used for competitive binding assays were: [^3H]-8-cyclopentyl-1,3-dipropyxanthine ([^3H]-DPCPX) (NEN, Boston, Mass.) for A1 and A2b adenosine receptors, [^3H]-4-(2-[7-amino-2-(furyl)(1,2,4)triazole(2,3-a)(1,3,5)triazin-5-ylaminoethyly)phenol ([^3H] ZM241385) for A2a adenosine receptors (Tocris, Bristol, UK), and [^125Iodine]-labeled N6-(4-aminobenzyl)-9-(5-(methylcarbonyl)-β-D-ribofuranosyl) adenine ([^125I]-AB-MECA) or [^3H]-R-N^6-phenylisopropyladenosine (H^3R]-R-PIA) for A3 adenosine receptors (both from NEN, Boston, Mass.). Nonspecific binding was measured in the presence of 10 μM 5′N ethylcarboxamidoadenosine (NECA, from RBI-Sigma, Natick, Mass.) for A1 and A2b receptors, or 10 μM xanthine amino congener (XAC, from RBI-Sigma, Natick, Mass.) for A2a receptors. Binding assays were terminated by filtration over Whatman GF/C glass fiber filters using a BRANDEL cell harvester (Gaithersburg, Md.). The-filters were rinsed three times with 3-4 mL ice-cold 10 mM Tris-HCl, pH 7.4 and 5 mM magnesium chloride (MgCl2) at 4° C., and were counted in a Wallac β-counter (Perkin Elmer, Boston, Mass.).

[4] = biological target: T3, recombinant human A2a adenosine receptors (Homo sapiens, UniProt P29274); assay: Radioligand competitive binding, human A2a receptor ([3H]-ZM241385)
T3 construct: purchased PerkinElmer (Boston, Mass.); host or cells: HEK 293
T3 sequence (P29274 whole entry): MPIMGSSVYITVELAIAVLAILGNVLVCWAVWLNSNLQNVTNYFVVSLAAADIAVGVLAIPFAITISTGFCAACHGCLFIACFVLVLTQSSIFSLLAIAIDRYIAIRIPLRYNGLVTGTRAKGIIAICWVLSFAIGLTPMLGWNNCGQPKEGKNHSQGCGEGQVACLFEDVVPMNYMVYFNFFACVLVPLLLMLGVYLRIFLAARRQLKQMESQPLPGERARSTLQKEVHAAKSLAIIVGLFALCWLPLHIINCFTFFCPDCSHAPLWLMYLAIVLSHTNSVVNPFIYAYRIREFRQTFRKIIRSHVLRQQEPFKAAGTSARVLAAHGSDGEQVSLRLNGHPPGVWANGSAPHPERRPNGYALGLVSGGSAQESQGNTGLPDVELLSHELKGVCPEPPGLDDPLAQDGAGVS
Procedure: Binding assays were terminated by filtration.
as §1, with “Md.).” for “Md.). The-filters were rinsed three times with 3-4 mL ice-cold 10 mM Tris-HCl, pH 7.4 and 5 mM magnesium chloride (MgCl2) at 4° C., and were counted in a Wallac β-counter (Perkin Elmer, Boston, Mass.).”

SMILES: CCCn1c(=O)c2[nH]c(C34CCC(CCC(=O)O)(CC3)CC4)nc2n(CCC)c1=O [BG 9928, 3-[4-(2,6-dioxo-1,3-dipropyl-2,3,6,7-tetrahydro-1H-purin-8-yl)-bicyclo[2.2.2]oct-1-yl]-propionic acid]
- Addition to the protective effect of ischemic preconditioning ([1]; Protocol II): added to the protective effect
- Relationship between infarct size and collateral blood flow compared to preconditioned control ([1]; Protocol II (preconditioning)): shifted downward further
- Effect on the protective effects of ischemic preconditioning ([1]; Protocol II, 1 mg/kg i.v. bolus + 10 μg/kg/min): did not block
- pKi [2]: 5.37
- pKi [3]: 4.42
- pKi [4]: 5.39
